Experimental data as given in ChEMBL document CHEMBL1141972, “4'C-ethynyl-thymidine acts as a chain terminator during DNA-synthesis catalyzed by HIV-1 reverse transcriptase” (Bioorg Med Chem Lett, 2005).

Biological target: Human immunodeficiency virus type 1 reverse transcriptase (Human immunodeficiency virus 1, UniProt Q72547)
Test: Inhibitory concentration against human immunodeficiency virus type 1 reverse transcriptase

| IC50 [nM] | SMILES |
| --- | --- |
| 3280 | C#C[C@]1(COP(=O)(O)OP(=O)(O)OP(=O)(O)O)O[C@@H](n2cc(C)c(=O)[nH]c2=O)C[C@@H]1O |
| 2100 | Cc1cn([C@H]2C[C@H](N=[N+]=[N-])[C@@H](CO[P@](=O)(O)O[P@](=O)(O)OP(=O)(O)O)O2)c(=O)[nH]c1=O [ZIDOVUDINE TRIPHOSPHATE] |
